What follows are compounds tested on spontaneously hypertensive rats (SHR) (assay: Antihypertensive Activity: Spontaneously Hypertensive Rat (SHR test)). Settings: Rattus norvegicus, dose 5 mpk, p.o. or i.v., read-out: SHR TEST: change in blood pressure (delta % of control).
Type: in vivo, rat (male spontaneously hypertensive)
Procedure: Mean arterial pressure and heart rate were monitored from directly cannulated animals. Compounds were administered p.o. or i.v. and blood pressure was recorded for various time intervals post dosing.
Blood pressure changes (expressed as change in control pressure and reported as delta % of control for each animal) were analyzed statistically using a one way analysis of variance with a Dunnett's test. P values less than 0.05 were considered significant.

Compared with O=C1CCn2c(=O)n(CCN3CCN(c4ccc(F)cc4)CC3)c(=O)c3csc1c32 [Example 9, 3,4,5,7,8,9-Hexahydro-4-[2-[4-(4-fluorophenyl)piperazin-1-yl]ethyl]thieno[4,3,2-de]pyrido[1,2-c]pyrimidine-3,5,9-trione], COc1ccccc1N1CCN(CCn2c(=O)c3csc4c3n(c2=O)CCCC4=O)CC1 [Example 15, 4,7,8,9-Tetrahydro-4-[2-[4-(2-methoxyphenyl)-piperazin-1-yl]ethyl]thieno[4,3,2-de]pyrimido[3,4-a]azepine-3,5,10-trione] is lower in change in vivo at 5 mg/kg: -21.5% for the first, -29.8% for the second.

First: COc1ccccc1N1CCN(CCn2c(=O)c3c(C)sc4c3n(c2=O)CCC4O)CC1 (stereo not shown) [Example 23, 3,4,5,7,8,9-Hexahydro-9-hydroxy-4-[2-[4-(2-methoxyphenyl)piperazin-1-yl]ethyl]-2-methyl-thieno[4,3,2-de]pyrido[1,2-c]pyrimidine-3,5-dione]
Second: COc1ccccc1N1CCN(CCn2c(=O)c3csc4c3n(c2=O)CCC4OC(=O)C(C)C)CC1 (stereo not shown) [Example 33, 3,4,5,7,8,9-Hexahydro-9-(2-methylpropanoyloxy)-4-[2-[4-(2-methoxyphenyl)piperazin-1-yl]ethyl]thieno[4,3,2-de]pyrido[1,2-c]pyrimidine-3,5-dione]
The change in vivo at 5 mg/kg of the first is higher: -27.4% for the first, -32% for the second.

First: COc1ccccc1N1CCN(CCn2c(=O)c3csc4c3n(c2=O)CCC4OC(=O)C(C)(C)C)CC1 (stereo not shown) [Example 34, 3,4,5,7,8,9-Hexahydro-4-[2-[4-(2-methoxyphenyl)piperazin-1-yl]ethyl]-9-[(2,2-dimethyl)propanoyloxy]thieno[4,3,2-de]pyrido[1,2-c]pyrimidine-3,5-dione]
Second: COc1ccccc1N1CCN(CCn2c(=O)c3csc4c3n(c2=O)CCC4OC(=O)c2ccc(Cl)cc2)CC1 (stereo not shown) [Example 37, 9-(4-Chlorobenzoyloxy)-3,4,5,7,8,9-hexahydro-4-[2-[4-(2-methoxyphenyl)piperazin-1-yl]ethyl]thieno[4,3,2-de]pyrido[1,2-c]pyrimidine-3,5-dione]
The change in vivo at 5 mg/kg of the first is higher: -26% for the first, -30.2% for the second.

For COc1ccc(C(=O)OC2CCn3c(=O)n(CCN4CCN(c5ccccc5OC)CC4)c(=O)c4csc2c43)cc1 (stereo not shown) [Example 36, 3,4,5,7,8,9-Hexahydro-9-(4-methoxy)benzoyloxy-4-[2-[4-(2-methoxyphenyl)piperazin-1-yl]ethyl]thieno[4,3,2-de]pyrido[1,2-c]pyrimidine-3,5-dione], the change in vivo at 5 mg/kg was -14%.
